Reference: patent US5843910A, “Colchicine derivatives and the therapeutical use thereof” (Indena S.p.A., priority 1996, dated 1998)

Legend:
Colon tumoral cell line = test: In vitro cytotoxic (antimitotic) activity on tumoral cell lines, colon; format: cell-based
Text: (§1) Taxol and colchicine are the comparison substances.
(§2) In vitro cytotoxic activity of some novel colchicine derivatives.

Breast tumoral cell line = test: In vitro cytotoxic (antimitotic) activity on tumoral cell lines, breast; format: cell-based
Text: as §1, §2

Ovary tumoral cell line = test: In vitro cytotoxic (antimitotic) activity on tumoral cell lines, ovary; format: cell-based
Text: as §1, §2

Lung tumoral cell line = test: In vitro cytotoxic (antimitotic) activity on tumoral cell lines, lung; format: cell-based
Text: as §1, §2

resistant cell lines = test: cells; conditions: read-out: In vitro cytotoxic activity, IC50, Cell. resist.
Text: as §1
Formulations for the parenteral, oral, transdermal, epicutaneous administrations can be conveniently prepared.

**Q.** What does the source list for `COc1c(OC(C)C)cc2c(c1OC)-c1ccc(SC)c(=O)cc1[C@@H](NC(=O)C(F)(F)F)CC2` [Compound IIZ, N-desacetyl-N-trifluoroacetyl-3-O-demethyl-3-O-isopropyl-thiocolchicine]?
**A.** IC50 (Colon tumoral cell line): 1.8 nM; IC50 (Breast tumoral cell line): 5 nM; IC50 (Ovary tumoral cell line): 9.4 nM; IC50 (Lung tumoral cell line): 19 nM; IC50 (resistant cell lines): 11 nM

**Q.** Which results are given for `COc1cc2c(c(OC)c1OC)-c1ccc(SC)c(=O)cc1[C@@H](NC(=O)[C@@H](NC(=O)C(F)(F)F)c1ccccc1)CC2` [Compound IVZ, N-(N-trifluoroacetyl-α-phenylglycyl)-desacetylthiocolchicine]?
**A.** IC50 (Colon tumoral cell line): 2.2 nM; IC50 (Breast tumoral cell line): 4.1 nM; IC50 (Ovary tumoral cell line): 6.1 nM; IC50 (Lung tumoral cell line): 12 nM; IC50 (resistant cell lines): 7 nM

**Q.** With `COc1cc2c(c(OC)c1OC)-c1ccc(OC)c(=O)cc1[C@@H](NC(C)=O)CC2` [Colchicine, colchicine] as the molecule, how does the IC50 (Colon tumoral cell line) read?
**A.** 3.9 nM

**Q.** And the IC50 (Breast tumoral cell line)?
**A.** 4.4 nM

**Q.** And the IC50 (Ovary tumoral cell line)?
**A.** 5.3 nM

**Q.** What about the IC50 (Lung tumoral cell line) of the same molecule?
**A.** 16 nM

**Q.** And the IC50 (resistant cell lines)?
**A.** 112 nM

**Q.** What does the source list for `CC(=O)O[C@H]1C(=O)[C@@]2(C)[C@H]([C@H](OC(=O)c3ccccc3)[C@]3(O)C[C@H](OC(=O)[C@H](O)[C@@H](NC(=O)c4ccccc4)c4ccccc4)C(C)=C1C3(C)C)[C@]1(OC(C)=O)CO[C@@H]1C[C@@H]2O` [Taxol, reference compound]?
**A.** IC50 (Colon tumoral cell line): 3.5 nM; IC50 (Breast tumoral cell line): 3.2 nM; IC50 (Ovary tumoral cell line): 6.1 nM; IC50 (Lung tumoral cell line): 1.7 nM; IC50 (resistant cell lines): 299 nM

**Q.** Which IC50 (Colon tumoral cell line) does the source give for `COc1c(OC2CCCC2)cc2c(c1OC)-c1ccc(SC)c(=O)cc1[C@@H](NC(=O)C(F)(F)F)CC2` [Compound IZ, N-desacetyl-N-trifluoroacetyl-3-O-demethyl-3-O-cyclopentyl-thiocolchicine] here?
**A.** 2.6 nM

**Q.** And the IC50 (Breast tumoral cell line)?
**A.** 6.2 nM

**Q.** And the IC50 (Ovary tumoral cell line)?
**A.** 4.2 nM

**Q.** What about the IC50 (Lung tumoral cell line) of the same molecule?
**A.** 8 nM

**Q.** And the IC50 (resistant cell lines)?
**A.** 26 nM
